Drawing on ChEMBL document CHEMBL1128161, “Novel prostanoid thromboxane A2 antagonists” (Bioorg Med Chem Lett, 1995), this text covers CF and IC50 for 65 compounds.

The structures appear in SMILES notation.

In the first assay the target is T1, Thromboxane A2 receptor (Homo sapiens) (UniProt P21731).
T1 sequence (whole entry): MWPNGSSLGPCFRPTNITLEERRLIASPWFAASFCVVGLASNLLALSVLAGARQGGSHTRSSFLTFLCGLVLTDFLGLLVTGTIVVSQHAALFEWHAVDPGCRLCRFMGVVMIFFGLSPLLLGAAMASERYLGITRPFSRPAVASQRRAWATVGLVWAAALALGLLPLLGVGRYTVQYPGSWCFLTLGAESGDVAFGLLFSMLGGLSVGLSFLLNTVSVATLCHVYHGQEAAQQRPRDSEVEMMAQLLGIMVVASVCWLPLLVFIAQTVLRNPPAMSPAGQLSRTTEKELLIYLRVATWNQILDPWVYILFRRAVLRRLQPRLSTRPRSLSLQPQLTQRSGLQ
As to the kind of experiment: Thromboxane A2 receptor binding affinity was evaluated, which is expressed as competition factor (CF = (IC50-test) / (IC50-standard); not parallel.
`O=C(O)COCCCCC1=CCC[C@@H]1CNS(=O)(=O)c1ccc(F)cc1` yielded a CF of 0.5.
In the case of `Cc1ccc(S(=O)(=O)NC[C@H]2CC[C@H](F)[C@@H]2C/C=C\CCC(=O)O)cc1`, the CF was found to be 6.
Still for that read-out and setting: under `Cc1ccc(S(=O)(=O)N[C@H]2CC[C@@H](F)[C@@H]2CCCCOCC(=O)O)cc1` stands 3.5; under `O=C(O)COCCCC[C@@H]1[C@@H](CNS(=O)(=O)c2ccc(F)cc2)CC[C@H]1F`, 6.7.
Regarding `O=C(O)CC/C=C\C[C@@H]1[C@@H](CNS(=O)(=O)c2ccc(F)cc2)CC[C@H]1F`, the CF came to 11.
The same measure, in the same setting: under `O=C(O)COCCCC[C@H]1[C@H](F)CC[C@@H]1NS(=O)(=O)c1ccc(F)cc1` stands 2.7; under `O=C(O)CC/C=C\C[C@@H]1[C@@H](CNS(=O)(=O)c2ccc(Cl)cc2)CC[C@@H]1F`, 1.8.
Still for that read-out and setting: then `O=C(O)COCCCC[C@H]1[C@H](F)CC[C@@H]1NS(=O)(=O)c1ccccc1`, with 9.1.

A further assay has as its target T1, Thromboxane A2 receptor (Homo sapiens). The assay is described as follows: Thromboxane A2 receptor binding affinity was evaluated, which is expressed as competition factor (CF = (IC50-test) / (IC50-standard).
Consider `O=C(O)CC/C=C\CC1=CCC[C@@H]1NS(=O)(=O)c1ccc(F)cc1`, for which the CF came to 5.5.
The same measure, in the same setting: under `O=C(O)COCCCC[C@H]1[C@H](F)CC[C@@H]1NS(=O)(=O)c1ccc(Cl)cc1` stands 0.8.
Same read-out and setting: under `O=C(O)CC/C=C/C[C@H]1[C@H](F)CC[C@@H]1NS(=O)(=O)c1ccc(F)cc1F` stands 6.6; under `O=C(O)CCC/C=C\CC1=CCC[C@@H]1NS(=O)(=O)c1ccc(F)cc1` (stereo in doubt; 3d), 1.5.
`O=C(O)CCCCC[C@@H]1[C@@H](CNS(=O)(=O)c2ccc(F)cc2)CC[C@H]1F`: the CF was determined as 380.
Same read-out and setting: then `O=C(O)CCC/C=C\CC1=CCC[C@@H]1NS(=O)(=O)c1ccc(Cl)c(Cl)c1`, with 1.1; and `O=C(O)CCC/C=C\CC1=CCC[C@@H]1NS(=O)(=O)c1ccc2ccccc2c1`, with 0.3; and `O=C(O)CCCCCC[C@H]1[C@H](F)CC[C@@H]1NS(=O)(=O)c1ccc(F)cc1`, with 7.5.
On the same count and under the same terms, then `O=C(O)COCCCCC1=CCC[C@@H]1NS(=O)(=O)c1ccc(F)cc1`, with 13; and `O=C(O)CCCC=CCC1=CCC[C@@H]1NS(=O)(=O)c1cccc2cccnc12`, with 560; and `O=C(O)CCC/C=C\CC1=CCC[C@@H]1NS(=O)(=O)c1ccc(F)cc1` (stereo in doubt), with 1.5.
On the same count and under the same terms, then `O=C(O)COCCCC[C@H]1[C@H](F)CC[C@@H]1NS(=O)(=O)c1ccccc1[N+](=O)[O-]`, with 330; and `O=C(O)CC/C=C\CC1=CCC[C@@H]1NS(=O)(=O)c1ccc(F)cc1F`, with 14; and `O=C(O)CC/C=C\C[C@@H]1[C@@H](CNS(=O)(=O)c2ccc(F)cc2)CC[C@@H]1F`, with 11.
With `O=C(O)CC/C=C\CC1=CCC[C@@H]1NS(=O)(=O)c1ccccc1`, the CF worked out at 12.
Same read-out and setting: then `O=C(O)CC/C=C\CC1=CCC[C@@H]1CNS(=O)(=O)c1ccc(F)cc1`, with 21; and `O=C(O)CC/C=C\CC1=CCC[C@@H]1NS(=O)(=O)c1ccccc1[N+](=O)[O-]`, with 40; and `O=C(O)COCCCCC1=CCC[C@@H]1NS(=O)(=O)c1ccccc1[N+](=O)[O-]`, with 130.
In turn, `O=C(O)CCC/C=C\C[C@H]1[C@H](F)CC[C@@H]1NS(=O)(=O)c1ccc2ccccc2c1` yielded a CF of 0.3.
The same measure, in the same setting: under `O=C(O)CCCCCC[C@@H]1[C@@H](CNS(=O)(=O)c2ccc(F)cc2)CC[C@H]1F` stands 260; under `O=C(O)CCC/C=C\C[C@H]1[C@H](F)CC[C@@H]1NS(=O)(=O)c1ccc(Cl)c(Cl)c1`, 0.5; under `O=C(O)CCCC=CC[C@H]1[C@H](F)CC[C@@H]1NS(=O)(=O)c1ccc(F)cc1`, 1.5.
The same measure, in the same setting: under `O=C(O)CCC/C=C\CC1=CCC[C@@H]1NS(=O)(=O)c1ccc(Cl)cc1` stands 0.3.
For the compound `O=C(O)CC/C=C\C[C@H]1[C@H](F)CC[C@@H]1NS(=O)(=O)c1ccccc1`, the CF was 10.
On the same count and under the same terms, under `O=C(O)COCCCCC1=CCC[C@@H]1NS(=O)(=O)c1ccc(Cl)c(Cl)c1` stands 7.6.
With `O=C(O)CCC/C=C\C[C@H]1[C@H](F)CC[C@@H]1NS(=O)(=O)c1ccc(F)cc1F`, the CF was 1.1.
In the case of `O=C(O)COCCCCC1=CCC[C@@H]1NS(=O)(=O)c1ccc(F)cc1F`, the CF was 22.
Same read-out and setting: under `Cc1ccc(S(=O)(=O)N[C@H]2CCC=C2C/C=C\CCCC(=O)O)cc1` stands 1.5.
With `O=C(O)CCC/C=C\C[C@@H]1[C@@H](CNS(=O)(=O)c2ccc(F)cc2)CC[C@H]1F`, the CF stood at 50.
Still for that read-out and setting: then `O=C(O)CCC/C=C\CC1=CCC[C@@H]1NS(=O)(=O)c1ccccc1`, with 3.5; and `O=C(O)CCC/C=C\C[C@H]1[C@H](F)CC[C@@H]1NS(=O)(=O)c1ccc(Cl)cc1`, with 0.3; and `Cc1ccc(S(=O)(=O)N[C@H]2CCC=C2C/C=C\CCC(=O)O)cc1`, with 7.4.
On the same count and under the same terms, then `O=C(O)CCC/C=C\CC1=CCC[C@@H]1CNS(=O)(=O)c1ccc(F)cc1`, with 17.
On the same count and under the same terms, then `O=C(O)CC/C=C\C[C@@H]1[C@@H](CNS(=O)(=O)c2ccc(Cl)cc2)CC[C@H]1F`, with 40.
In turn, `O=C(O)COCCCC[C@H]1[C@H](F)CC[C@@H]1NS(=O)(=O)c1ccc(Cl)c(Cl)c1` gave a CF of 2.3.
The same measure, in the same setting: under `O=C(O)COCCCCC1=CCC[C@@H]1NS(=O)(=O)c1ccccc1` stands 26.
The same measure, in the same setting: then `O=C(O)CC/C=C\CC1=CCC[C@@H]1NS(=O)(=O)c1ccc(Cl)cc1`, with 2.8; and `Cc1ccc(S(=O)(=O)NC[C@H]2CC[C@@H](F)[C@@H]2C/C=C\CCC(=O)O)cc1`, with 154.
The same measure, in the same setting: then `O=C(O)CC/C=C\C[C@H]1[C@H](F)CC[C@@H]1NS(=O)(=O)c1ccc(F)cc1`, with 4.3.
With `O=C(O)CC/C=C\C[C@@H]1[C@@H](CNS(=O)(=O)c2ccc(F)cc2)CC[C@H]1F` (stereo in doubt; form 2), the CF worked out at 300.
Still for that read-out and setting: under `O=C(O)CC/C=C\CC1=CCC[C@@H]1NS(=O)(=O)c1ccc(Cl)c(Cl)c1` stands 13.
Consider `O=C(O)COCCCC[C@H]1[C@H](F)CC[C@@H]1NS(=O)(=O)c1ccc(F)cc1F`, for which the CF worked out at 30.
Same read-out and setting: under `O=C(O)CC/C=C\C[C@@H]1[C@@H](CNS(=O)(=O)c2ccc(F)cc2)CC[C@H]1F` (stereo in doubt; form 1) stands 300; under `Cc1ccc(S(=O)(=O)N[C@H]2CCC=C2CCCCOCC(=O)O)cc1`, 11.
The same measure, in the same setting: under `O=C(O)COCCCCC1=CCC[C@@H]1NS(=O)(=O)c1ccc(Cl)cc1` stands 2.6.
As for `O=C(O)CC/C=C\C[C@H]1[C@H](F)CC[C@@H]1NS(=O)(=O)c1ccccc1[N+](=O)[O-]`, the CF is 370.
For the compound `Cc1ccc(S(=O)(=O)N[C@H]2CC[C@@H](F)[C@@H]2C/C=C\CCCC(=O)O)cc1`, the CF was determined as 1.5.
Compound `O=C(O)CCC/C=C\C[C@H]1[C@H](F)CC[C@@H]1NS(=O)(=O)c1ccccc1[N+](=O)[O-]` registered a CF of 10.
Still for that read-out and setting: then `O=C(O)CCCCCCC1=CCC[C@@H]1NS(=O)(=O)c1ccc(F)cc1`, with 2.7.
On the same count and under the same terms, under `O=C(O)CCC/C=C\CC1=CCC[C@@H]1NS(=O)(=O)c1ccccc1[N+](=O)[O-]` stands 6.6; under `O=C(O)CCC/C=C\C[C@H]1[C@H](F)CC[C@@H]1NS(=O)(=O)c1ccc(F)cc1`, 1.5; under `Cc1ccc(S(=O)(=O)N[C@H]2CC[C@@H](F)[C@@H]2C/C=C\CCC(=O)O)cc1`, 5.1.
The same measure, in the same setting: under `O=C(O)CCC/C=C\CC1=CCC[C@@H]1NS(=O)(=O)c1ccc(F)cc1F` stands 1.5; under `O=C(O)CCC/C=C\C[C@H]1[C@H](F)CC[C@@H]1NS(=O)(=O)c1ccccc1`, 4.
Turning to `O=C(O)CC/C=C\C[C@H]1[C@H](F)CC[C@@H]1NS(=O)(=O)c1ccc(Cl)cc1`, the CF stood at 1.3.
Still for that read-out and setting: then `O=C(O)CCC/C=C\C[C@H]1[C@H](F)CC[C@@H]1NS(=O)(=O)c1cccc2cccnc12`, with 340.

The species entered for a further assay is Homo sapiens. The assay is described as follows: Compound was evaluated for the inhibition of platelet aggregation, assessed turbidimetrically in citreated human platelet rich plasma (PRP); NE means not effective. The class given is functional, organism-based.
In the case of `O=C(O)COCCCC[C@H]1[C@H](F)CC[C@@H]1NS(=O)(=O)c1ccc(Cl)cc1`, the IC50 result is on record as “Not Active”.
The same measure, in the same setting: under `Cc1ccc(S(=O)(=O)NC[C@H]2CC[C@H](F)[C@@H]2C/C=C\CCC(=O)O)cc1` stands “Not Active”.
Turning to `O=C(O)CCC/C=C\CC1=CCC[C@@H]1NS(=O)(=O)c1ccc(Cl)c(Cl)c1`, the IC50 result is recorded as “Not Active”.
Turning to `O=C(O)CCC/C=C\CC1=CCC[C@@H]1NS(=O)(=O)c1ccc(Cl)cc1`, the IC50 entry was “Not Active”.
The same measure, in the same setting: then `O=C(O)COCCCC[C@H]1[C@H](F)CC[C@@H]1NS(=O)(=O)c1ccc(Cl)c(Cl)c1`, with “Not Active”.
Same read-out and setting: under `O=C(O)CC/C=C\C[C@@H]1[C@@H](CNS(=O)(=O)c2ccc(Cl)cc2)CC[C@@H]1F` stands “Not Active”.
On the same count and under the same terms, then `O=C(O)COCCCCC1=CCC[C@@H]1NS(=O)(=O)c1ccc(Cl)cc1`, with “Not Active”; and `O=C(O)CCC/C=C\CC1=CCC[C@@H]1NS(=O)(=O)c1ccc(F)cc1F`, with “Not Active”.

The target in a further assay is T1, Thromboxane A2 receptor (Homo sapiens). As to the kind of experiment: Thromboxane A2 receptor binding affinity was evaluated as competition factor (CF = (IC50-test) / (IC50-standard).
Regarding `O=C(O)CC/C=C\C[C@H]1[C@H](F)CC[C@@H]1NS(=O)(=O)c1ccc(Cl)c(Cl)c1`, the CF was 1.4.
